In BindingDB's records for doi:10.1021/jm00003a019 (Research Triangle Institute, 1995):

Experiment: Binding affinity at Sigma receptor type 1, displacement of [3H](+)-pentazocine from guinea pig brain membranes

SMILES	Ki [nM]
C[C@@H]1[C@@H]2Cc3ccc(O)cc3[C@@]1(C)CCN2Cc1ccc(C#N)cc1 [4-((2S,6S,11S)-8-Hydroxy-6,11-dimethyl-1,2,5,6-tetrahydro-4H-2,6-methano-benzo[d]azocin-3-ylmethyl)-benzonitrile]	1.53
C[C@@H]1[C@@H]2Cc3ccc(O)cc3[C@@]1(C)CCN2Cc1ccccc1F [(2S,6S,11S)-3-(2-Fluoro-benzyl)-6,11-dimethyl-1,2,3,4,5,6-hexahydro-2,6-methano-benzo[d]azocin-8-ol]	1.45
C[C@@H]1[C@@H]2Cc3ccc(O)cc3[C@@]1(C)CCN2Cc1ccccc1I [(2S,6S,11S)-3-(2-Iodo-benzyl)-6,11-dimethyl-1,2,3,4,5,6-hexahydro-2,6-methano-benzo[d]azocin-8-ol]	930
C[C@@H]1[C@@H]2Cc3ccc(O)cc3[C@@]1(C)CCN2Cc1cccc(I)c1 [(2S,6S,11S)-3-(3-Iodo-benzyl)-6,11-dimethyl-1,2,3,4,5,6-hexahydro-2,6-methano-benzo[d]azocin-8-ol]	27.2
C[C@@H]1[C@@H]2Cc3ccc(O)cc3[C@@]1(C)CCN2Cc1ccc(N)cc1 [(2S,6S,11S)-3-(4-Amino-benzyl)-6,11-dimethyl-1,2,3,4,5,6-hexahydro-2,6-methano-benzo[d]azocin-8-ol]	16.8
C[C@@H]1[C@@H]2Cc3ccc(O)cc3[C@@]1(C)CCN2Cc1ccc(Br)cc1 [(2S,6S,11S)-3-(4-Bromo-benzyl)-6,11-dimethyl-1,2,3,4,5,6-hexahydro-2,6-methano-benzo[d]azocin-8-ol]	3.11
C[C@@H]1[C@@H]2Cc3ccc(O)cc3[C@@]1(C)CCN2Cc1ccc(Cl)cc1 [(2S,6S,11S)-3-(4-Chloro-benzyl)-6,11-dimethyl-1,2,3,4,5,6-hexahydro-2,6-methano-benzo[d]azocin-8-ol]	2.37
C[C@@H]1[C@@H]2Cc3ccc(O)cc3[C@@]1(C)CCN2Cc1ccc(N(C)C)cc1 [(2S,6S,11S)-3-(4-Dimethylamino-benzyl)-6,11-dimethyl-1,2,3,4,5,6-hexahydro-2,6-methano-benzo[d]azocin-8-ol]	102
C[C@@H]1[C@@H]2Cc3ccc(O)cc3[C@@]1(C)CCN2Cc1ccc(F)cc1 [(2S,6S,11S)-3-(4-Fluoro-benzyl)-6,11-dimethyl-1,2,3,4,5,6-hexahydro-2,6-methano-benzo[d]azocin-8-ol]	0.97
C[C@@H]1[C@@H]2Cc3ccc(O)cc3[C@@]1(C)CCN2Cc1ccc(I)c([N+](=O)[O-])c1 [(2S,6S,11S)-3-(4-Iodo-3-nitro-benzyl)-6,11-dimethyl-1,2,3,4,5,6-hexahydro-2,6-methano-benzo[d]azocin-8-ol]	386
C[C@@H]1[C@@H]2Cc3ccc(O)cc3[C@@]1(C)CCN2Cc1ccc(I)cc1 [(2S,6S,11S)-3-(4-Iodo-benzyl)-6,11-dimethyl-1,2,3,4,5,6-hexahydro-2,6-methano-benzo[d]azocin-8-ol]	16.5
COc1ccc(CN2CC[C@]3(C)c4cc(O)ccc4C[C@H]2[C@H]3C)cc1 [(2S,6S,11S)-3-(4-Methoxy-benzyl)-6,11-dimethyl-1,2,3,4,5,6-hexahydro-2,6-methano-benzo[d]azocin-8-ol]	2.89
C[C@@H]1[C@@H]2Cc3ccc(O)cc3[C@@]1(C)CCN2Cc1ccc(C(C)(C)C)cc1 [(2S,6S,11S)-3-(4-tert-Butyl-benzyl)-6,11-dimethyl-1,2,3,4,5,6-hexahydro-2,6-methano-benzo[d]azocin-8-ol]	1070
Cc1ccccc1CN1CC[C@]2(C)c3cc(O)ccc3C[C@H]1[C@H]2C [(2S,6S,11S)-6,11-Dimethyl-3-(2-methyl-benzyl)-1,2,3,4,5,6-hexahydro-2,6-methano-benzo[d]azocin-8-ol]	12.8
Cc1ccc(CN2CC[C@]3(C)c4cc(O)ccc4C[C@H]2[C@H]3C)cc1 [(2S,6S,11S)-6,11-Dimethyl-3-(4-methyl-benzyl)-1,2,3,4,5,6-hexahydro-2,6-methano-benzo[d]azocin-8-ol]	2.08
C[C@@H]1[C@@H]2Cc3ccc(O)cc3[C@@]1(C)CCN2Cc1ccc([N+](=O)[O-])cc1 [(2S,6S,11S)-6,11-Dimethyl-3-(4-nitro-benzyl)-1,2,3,4,5,6-hexahydro-2,6-methano-benzo[d]azocin-8-ol]	2.19
C[C@@H]1[C@@H]2Cc3ccc(O)cc3[C@@]1(C)CCN2Cc1ccc(C(F)(F)F)cc1 [(2S,6S,11S)-6,11-Dimethyl-3-(4-trifluoromethyl-benzyl)-1,2,3,4,5,6-hexahydro-2,6-methano-benzo[d]azocin-8-ol]	20.5
CC(=O)Nc1ccc(CN2CC[C@]3(C)c4cc(O)ccc4C[C@H]2[C@H]3C)cc1 [N-[4-((2S,6S,11S)-8-Hydroxy-6,11-dimethyl-1,2,5,6-tetrahydro-4H-2,6-methano-benzo[d]azocin-3-ylmethyl)-phenyl]-acetamide]	47
